Experimental data: article PMC12432127, “Assessing the potential of bacterial signal peptides for radiopharmaceutical applications” (Scientific Reports, 2025)
“And” between values parts separate entries of the source, which are not always exact repeats. Identical values can stand only once. Residues, ends and D or L forms follow the SMILES beside them. *: point of attachment. For = O=C*

Key:
[1] = molecular target: T1, FPR1 (Homo sapiens, UniProt P21462); test: High-throughput calcium imaging (FLIPR), FPR1 transfected HEK293T cells; type: cell-based; settings: for Calicum signal (dF/F0): FPR1-HEK
T1 construct: expressed in transfected cells; host or cells: HEK293T (transient, jetPEI)
T1 sequence (P21462 1-350): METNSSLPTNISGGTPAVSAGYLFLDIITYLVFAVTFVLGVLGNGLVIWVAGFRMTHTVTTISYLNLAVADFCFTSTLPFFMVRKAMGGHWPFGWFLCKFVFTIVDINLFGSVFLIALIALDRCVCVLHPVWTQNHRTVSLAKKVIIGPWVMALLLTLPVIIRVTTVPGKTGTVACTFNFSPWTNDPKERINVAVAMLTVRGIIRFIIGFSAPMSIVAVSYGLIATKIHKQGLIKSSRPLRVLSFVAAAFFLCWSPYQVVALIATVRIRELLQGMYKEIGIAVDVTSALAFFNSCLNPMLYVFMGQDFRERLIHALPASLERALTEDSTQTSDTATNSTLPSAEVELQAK
Protocol: (§1) Cell transfection was performed approximately 24 h after seeding the cells, when they reached about 70% confluence. Transfection was carried out using jetPEI™ (Polyplus) according to the following protocol: 0.25 µg DNA was diluted in 10 µL NaCl (150 mM). 0.5 µL of jetPEI™ solution in 10 µL NaCl was mixed with the DNA solution and incubated at RT for 15–30 min. After incubation, 20 µL of the jetPEI™/DNA mixture was added dropwise to the cells, which were then placed in the cell culture incubator at 37 °C and 5% CO2. After 18 to 24 h of transfection, the medium was replaced, and 100 µL per well was added, then placed back in the incubator.
(§2) Automated high-throughput Ca^2+ measurements using a fluorescence imaging plate reader (FLIPR, Molecular Devices) were performed. Briefly, […] were seeded in 96-well plates (~ 50,000 cells/well) one day before the experiments and incubated at 37 °C. HEK293T cells were co-transfected with the receptor or mock and the G protein Gα16 for 48 h. On the day of the experiments, the medium was removed, and the cells were loaded with a loading solution consisting of 2 µM Calbryte dye in C1 buffer (Calbryte 520AM, AAT Bioquest 20651) 50 µL per well, for at least 2 h at RT in the dark. After 2 h of loading with the fluorescent dye, the solution was removed, the plate was washed three times using an ELX50 washer (BioTek), and the intracellular release of calcium was measured using FLIPR. A Ca^2+ response was defined as an increase in the excitation ratio (340 nm/380 nm) that was at least four times higher than the mean baseline noise after bath application.
(§3) The results are expressed as the means ± standard deviations of the number of the indicated determinations. Calcium measurement experiments were routinely performed as triplicates and averaged over at least three independent transfections. Response amplitudes (F/F0) were calculated by dividing maximal fluorescence change after ligand application by baseline fluorescence. Maximal amplitudes were set to 100%, and curves were calculated with Graph Pad Prism Version 10.1 (GraphPad Software, Boston, MA, USA). S.D. values were calculated as averages from independently obtained EC50 values using the STDEV. Data derived from experiments were analyzed by two-way ANOVA. P < 0.05 was accepted as significant.

[2] = system: U87-MG cells; test: Calcium imaging (FLIPR) in U87-MG cells; type: cell-based, human; settings: for Calicum signal (dF/F0): U87 cells
Protocol: as §2, §3

[3] = molecular target: T2, human FPR2 (Homo sapiens, UniProt P25090); test: High-throughput calcium imaging (FLIPR), FPR2 transfected HEK293T cells; type: cell-based; settings: read-out: EC50 Ca2+ mobilization
T2 construct: expressed in transfected cells; host or cells: HEK293T (transient, jetPEI)
T2 sequence (P25090 1-351): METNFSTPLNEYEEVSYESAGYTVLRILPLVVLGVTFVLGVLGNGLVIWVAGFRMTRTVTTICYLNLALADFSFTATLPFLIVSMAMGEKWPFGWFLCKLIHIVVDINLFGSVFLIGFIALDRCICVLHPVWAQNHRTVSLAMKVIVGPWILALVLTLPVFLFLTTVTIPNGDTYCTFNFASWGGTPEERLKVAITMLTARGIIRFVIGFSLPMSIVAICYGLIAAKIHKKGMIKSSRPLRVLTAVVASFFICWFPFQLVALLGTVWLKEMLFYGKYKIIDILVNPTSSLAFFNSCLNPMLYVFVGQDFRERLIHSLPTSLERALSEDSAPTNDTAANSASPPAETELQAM
Protocol: as §1
(§4) Automated high-throughput Ca^2+ measurements using a fluorescence imaging plate reader (FLIPR, Molecular Devices) were performed. […] After 2 h of loading with the fluorescent dye, the solution was removed, the plate was washed three times using an ELX50 washer (BioTek), and the intracellular release of calcium was measured using FLIPR. […]
(§5) The results are expressed as the means ± standard deviations of the number of the indicated determinations. […] Response amplitudes (F/F0) were calculated by dividing maximal fluorescence change after ligand application by baseline fluorescence. Maximal amplitudes were set to 100%, and curves were calculated with Graph Pad Prism Version 10.1 (GraphPad Software, Boston, MA, USA). […]

[4] = molecular target: T3, human FPR3 (Homo sapiens, UniProt P25089); test: High-throughput calcium imaging (FLIPR), FPR3 transfected HEK293T cells; type: cell-based; settings: up to 10 µM
T3 construct: expressed in transfected cells; host or cells: HEK293T (transient, jetPEI)
T3 sequence (P25089 1-353): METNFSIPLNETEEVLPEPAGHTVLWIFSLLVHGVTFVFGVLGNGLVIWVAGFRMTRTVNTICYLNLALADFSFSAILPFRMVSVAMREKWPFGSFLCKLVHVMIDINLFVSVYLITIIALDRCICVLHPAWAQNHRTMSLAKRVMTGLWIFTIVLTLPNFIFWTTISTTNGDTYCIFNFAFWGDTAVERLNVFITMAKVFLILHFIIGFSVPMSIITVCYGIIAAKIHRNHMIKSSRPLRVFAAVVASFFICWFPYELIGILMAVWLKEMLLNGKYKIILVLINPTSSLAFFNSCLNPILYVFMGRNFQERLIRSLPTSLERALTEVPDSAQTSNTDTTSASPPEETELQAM
Protocol: as §1, §4, §5

[5] = Log Concentration (M) -6,5, single replicate values
[6] = Log Concentration (M) -6, single replicate values
[7] = Log Concentration (M) -7,5, single replicate values
[8] = Log Concentration (M) -7, single replicate values
[9] = Log Concentration (M) -8,5, single replicate values
[10] = Log Concentration (M) -8, single replicate values
[11] = Log Concentration (M) -9, single replicate values

SMILES: CC[C@H](C)[C@H](NC(=O)[C@H](CCCCN)NC(=O)[C@@H](NC(=O)[C@@H]1CCCN1C(=O)[C@@H](NC(=O)[C@H](CCSC)NC=O)C(C)C)[C@@H](C)CC)C(=O)O [f-MVPIKI] (For-MVPIKI-OH; C-terminus assumed)
- Calicum signal (dF/F0) [1, 5]: 0,85 (2×) and 0,92
- Calicum signal (dF/F0) [1, 6]: 0,75 and 0,94 and 0,85
- Calicum signal (dF/F0) [1, 7]: 0,71 and 0,77 and 0,68
- Calicum signal (dF/F0) [1, 8]: 0,57 and 0,86 and 0,73
- Calicum signal (dF/F0) [1, 9]: 0,27 and 0,32 and 0,34
- Calicum signal (dF/F0) [1, 10]: 0,65 and 0,63 and 0,6
- Calicum signal (dF/F0) [1, 11]: 0,18 and 0,24 and 0,22
- EC50 ([1]; FPR1 transfected HEK293T cells, peak calcium response, read-out: EC50 Ca2+ mobilization): 4.3 ± 2.4 nM
- preference for FPR1 over FPR2 (calcium EC50) ([1]; FPR1 vs FPR2): approximately 14 fold
- EC50 ([2]; U87-MG cells, read-out: EC50 Ca2+ flux): 5.3 ± 2.4 nM
- Calicum signal (dF/F0) [2, 5]: 1,19 (2×) and 0,99 and 1,7 and 1,4
- Calicum signal (dF/F0) [2, 6]: 1,22 and 1,13 and 1,2 and 1,14 and 1,1
- Calicum signal (dF/F0) [2, 7]: 1 and 0,95 and 0,98 and 1,12 and 1,1
- Calicum signal (dF/F0) [2, 8]: 1 and 1,1 and 1,2 and 1,18 and 0,99
- Calicum signal (dF/F0) [2, 9]: 0,66 (2×) and 0,69 and 0,6 and 0,47
- Calicum signal (dF/F0) [2, 10]: 0,9 and 0,98 and 0,94 and 1,3 and 1,07
- Calicum signal (dF/F0) ([2]; Log Concentration (M) -9,5, single replicate values): 0,01 and 0,08 and 0,09 and 0,1 and 0,3
- Calicum signal (dF/F0) [2, 11]: 0,14 and 0,23 and 0,2 and 0,12 and 0,38
- EC50 [3]: 60 ± 0.76 nM
- activation of FPR3 (calcium) [4]: did not activate FPR3 at any tested concentration
